Read-outs that look alike come from different tables or passages of the source.

This assay concerns the target T1, hURAT1 (Homo sapiens, UniProt Q96S37).
T1 sequence (Q96S37 1-553): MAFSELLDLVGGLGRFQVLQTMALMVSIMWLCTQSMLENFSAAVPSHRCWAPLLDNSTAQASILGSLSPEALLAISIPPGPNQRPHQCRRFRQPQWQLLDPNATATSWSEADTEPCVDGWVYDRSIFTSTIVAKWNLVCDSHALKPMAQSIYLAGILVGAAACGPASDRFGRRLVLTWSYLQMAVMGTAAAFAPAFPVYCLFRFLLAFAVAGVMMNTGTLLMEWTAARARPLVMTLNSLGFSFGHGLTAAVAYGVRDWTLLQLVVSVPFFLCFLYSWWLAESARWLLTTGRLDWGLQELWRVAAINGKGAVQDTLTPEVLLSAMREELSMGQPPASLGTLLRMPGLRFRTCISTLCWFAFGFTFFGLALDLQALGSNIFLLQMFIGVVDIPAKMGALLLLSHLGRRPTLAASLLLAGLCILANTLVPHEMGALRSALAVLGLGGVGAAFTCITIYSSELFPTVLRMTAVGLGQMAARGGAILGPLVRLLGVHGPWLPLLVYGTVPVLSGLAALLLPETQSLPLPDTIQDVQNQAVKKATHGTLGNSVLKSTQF
Briefly: Inhibition assay of uric acid transport in HEK293-hURAT1 transfection cell line (14C-uric acid uptake). In kind it is cell-based. The conditions noted are these: for inhibition at 0.5 µM: read-out: Inhibitory rates of uric acid transport, ±SD (%); for inhibitory effect on uric acid transport (in words): 500 nM, in comparison with the control drug benzbromarone. As for the experimental part:
1. Construction of a HEK293 Cell Line with High Expression of hURAT1:
The plasmid pCMV6-hURAT1 was transfected into HEK293 cells, and then the stable strain was obtained by the G418 (final concentration of 500 μg/mL) resistance screening, which is the high expression of hURAT1 transporter membrane protein. […] The HEK293 cells are the human embryonic kidney cells with high transfection efficiency, and are a very commonly used engineering cell line for expressing exogenous genes.
2. To a coated 24-well plate was added 200 μl of 0.1 mg/mL poly-lysine per well and the plate was left overnight. Poly-lysine was removed from wells. The wells were cleaned thoroughly with sterile water and dried for use.
3. To the above coated 24-well plate was added HEK293-hURAT1 stable cells (2×10^5 cells per well). The cells were cultured at 37° C. under 5% CO2 for 3 days.
4. […] The solution was fully mixed to give HBSS (pH value: 7.4). The buffer was stored at −20° C.
5. The HBSS buffer was warmed to 37° C. in a water bath. Taken out the 24-well plate with HEK293-hURAT1 stable cells, removed the culture medium and washed cells with HBSS, then added 160 μL of HBSS and 20 μL test compound per well. The final concentration of tested compound per well is 500 nM. The blank control well contains only 180 μL of HBSS without tested compound. The plate was placed at room temperature for 10 min.
6. To each well was added 20 μL of 50 μM ^14C-Uric acid. The 24-well plate was placed at room temperature for 20 min.
7. The solution in each well was removed and the cells were washed with the pre-cooled HBSS buffer. To each well was added 0.2 M NaOH to dissolve the cells. The solution containing cell fragments was collected and the right amount of scintillation liquid was added.
8. The formula for calculating the inhibitory rate of uric acid transport for compounds was shown as below (Table 1), the CPM value of the tested compounds was represented by CPM(tested compound) and the CPM value of the blank control was represented by CPM(blank control).

[1] abbreviates: 500 nM compound concentration, HEK293-hURAT1 transfection cell line, 14C-uric acid, mean of three tests ± SD.
Where [2] appears, read: HEK293-hURAT1 transfection cell line.

For the compound `CCc1oc2ccccc2c1C(=O)c1cc(Br)c(O)c(Br)c1` [Benzbromarone, (3,5-dibromo-4-hydroxy-'phenyl)(2-ethylbenzofuran-3-yl)-methanone, reference compound], the inhibition at 0.5 µM turned out to be 54.8 ± 5.12%.

`CCc1nc2ncccn2c1C(=O)c1cc(Br)c(O)c(Br)c1` [Compound 4, (3,5-dibromo-4-hydroxyphenyl)(2-ethylimidazo[1,2-a]-pyrimidine-3-yl)methanone]: under setting [1], the inhibition at 0.5 µM is 50 ± 5.38%.

As to `CCc1nc2sccn2c1C(=O)c1cc(Br)c(O)c(Br)c1` [Compound 8, (3,5-dibromo-4-hydroxyphenyl)(6-ethylimidazo[2,1-b]-thiazole-5-yl)methanone], under setting [1], the inhibition at 0.5 µM amounted to 55.2 ± 3.94%. The “inhibitory effect on uric acid transport (in words)” value (“inhibitory effect” below) under setting [2] was “very good inhibitory effects”.

With `CCc1nc2cnccn2c1C(=O)c1cc(Br)c(O)c(Br)c1` [Compound 12, (3,5-dibromo-4-hydroxyphenyl)(2-ethylimidazo[1,2-a]-pyrazine-3-yl)methanone], the inhibition at 0.5 µM under setting [1] worked out at 51.31 ± 0.16%. The “inhibitory effect” value under setting [2] is on record as “very good inhibitory effects”.

As to `CCc1nc2ccccn2c1C(O)c1cc(Br)c(O)c(C#N)c1` (stereo not shown) [Compound 20, 3-bromo-5-[(2-ethylimidazo[1,2-a]pyridine-3-yl)-hydroxymethyl]-2-hydroxybenzonitrile], the inhibition at 0.5 µM under setting [1] turned out to be 62.1 ± 1.26%. In addition, the “inhibitory effect” value under setting [2] is given as “very good inhibitory effects”.

As for `CCc1nc2ccccn2c1C(O)c1ccc(O)c(C#N)c1` (stereo not shown) [Compound 21, 5-[(2-ethylimidazo[1,2-a]pyridine-3-yl)hydroxymethyl]-2-hydroxybenzonitrile], under setting [1], the inhibition at 0.5 µM stood at 33 ± 7.33%.

Consider `CCc1nc2sccn2c1C(O)c1cc(Br)c(O)c(Br)c1` (stereo not shown) [Compound 22, 2,6-dibromo-4-[(6-ethylimidazo[2,1-b]thiazole-5-yl)-hydroxymethyl]phenol], for which the inhibition at 0.5 µM under setting [1] was determined as 48.2 ± 3.86%.

Turning to `CCc1nc2cnccn2c1C(O)c1cc(Br)c(O)c(Br)c1` (stereo not shown) [Compound 23, 2,6-dibromo-4-[(2-ethylimidazo[1,2-a]pyrazine-3-yl)-hydroxymethyl]phenol], the inhibition at 0.5 µM under setting [1] amounted to 50.2 ± 1.02%. Besides, the “inhibitory effect” value under setting [2] was “very good inhibitory effects”.

Turning to `CCc1nc2ccc(F)cn2c1C(O)c1cc(F)c(O)c(Br)c1` (stereo not shown) [Compound 28, 2-bromo-4-[(2-ethyl-6-fluoroimidazo[1,2-a]pyridine-3-yl)hydroxymethyl]-6-fluorophenol], under setting [1], the inhibition at 0.5 µM came out at 41.2 ± 1.92%.

In the case of `CCc1nn2ccccc2c1C(O)c1cc(Br)c(O)c(Br)c1` (stereo not shown) [Compound 35, 2,6-dibromo-4-[(2-ethylpyrazolo[1,5-a]pyridine-3-yl)-hydroxymethyl]phenol], the inhibition at 0.5 µM under setting [1] amounted to 36.3 ± 1.79%.

`CCc1nc2ccc(Br)cn2c1C(O)c1cc(Br)c(O)c(Br)c1` (stereo not shown) [Compound 40, 2,6-dibromo-4-[(6-bromo-2-ethylimidazo[1,2-a]-pyridine-3-yl)hydroxymethyl]phenol]: the inhibition at 0.5 µM under setting [1] is 51.7 ± 2.43%. In addition, the “inhibitory effect” value under setting [2] is given as “very good inhibitory effects”.

Turning to `CCc1nc2cc(C(F)(F)F)ccn2c1C(O)c1cc(Br)c(O)c(Br)c1` (stereo not shown) [Compound 41, 2,6-dibromo-4-{[2-ethyl-7-(trifluoromethyl)-imidazo[1,2-a]pyridine-3-yl]hydroxymethyl}phenol], the inhibition at 0.5 µM under setting [1] turned out to be 37.4 ± 5.52%.

For `CCc1oc2ccccc2c1C(O)c1cc(Br)c(O)c(Br)c1` (stereo not shown) [Compound 42, 2,6-dibromo-4-[(2-ethylbenzofuran-3-yl)-hydroxymethyl]phenol], the inhibition at 0.5 µM came out at 37.4 ± 2.36%.

For the compound `CCc1nc2scnn2c1C(=O)c1cc(Br)c(O)c(Br)c1` [Compound 49, (3,5-dibromo-4-hydroxyphenyl)(6-ethylimidazo-[2,1-b][1,3,4]thiadiazole-5-yl)methanone], the inhibition at 0.5 µM under setting [1] worked out at 31.91 ± 0.23%.

For `CCc1nc2ccccn2c1C(O)c1cc(C)c(O)c(Br)c1` (stereo not shown) [Compound 54, 2-bromo-4-(2-ethylimidazo[1,2-a]pyridine-3-yl)-hydroxymethyl-6-methylphenol], the inhibition at 0.5 µM under setting [1] is 42.9 ± 3.44%.

Regarding `CCc1oc2ccccc2c1C(OC)c1cc(Br)c(O)c(Br)c1` (stereo not shown) [Compound 58, 2,6-dibromo-4-[(2-ethylbenzofuran-3-yl)(methoxy)-methyl]phenol], under setting [1], the inhibition at 0.5 µM stood at 48.7 ± 5.61%.

For `CCc1nc2cc(OC)ccn2c1C(O)c1cc(Br)c(O)c(Br)c1` (stereo not shown) [Compound 64, 2,6-dibromo-4-{(2-ethyl-7-methoxyimidazo[1,2-a]-pyridine-3-yl)hydroxymethyl}phenol], under setting [1], the inhibition at 0.5 µM is 39.9 ± 5.34%.

For the origin of these results see patent USRE50083E1, “URAT1 inhibitor and use thereof” (Jiangsu Atom Bioscience and Pharmaceutical Co., Ltd., priority 2016, dated 2024).
